Inconclusive results are not listed. Activity calls are given as the source filed them. The rule behind the calls is not given here.
Experiments:
[1] = tested on: NIH/3T3 mouse fibroblast toxicity, plate reader; assay: NIH/3T3 fibroblast cytotoxicity, dose response, cytotoxicity control, cell-based, plate reader, dry powder, set 2 (AID 652280)
[2] = as above; details: NIH/3T3 mouse fibroblast toxicity, plate reader; at 16 µM (top of the series)

Row | SMILES | AC50 [1] [µM] | activity change, negative = toxicity [2]
1 | C[C@@H]1CN([C@@H](C)CO)C(=O)c2cccc(NC(=O)c3ccncc3)c2O[C@H]1CN(C)Cc1ccc(Oc2ccccc2)cc1 | 3.31 | –
2 | O=C(CN1CCOCC1)N1CCCCN2[C@@H](CO)[C@H](c3ccc(-c4ccccc4)cc3)[C@@H]2C1 | – | -1.37% (inactive)
3 | COc1ccc(CCN(C)C(=O)C2CCCN(Cc3ccc(OC)c(OC)c3)C2)cc1OC (stereo unspecified) | – | 6.14% (inactive)
4 | C[C@H]1CN([C@@H](C)CO)C(=O)c2cccc(NC(=O)c3ccncc3)c2O[C@@H]1CN(C)Cc1ccc(F)c(F)c1 | – | -6.64% (inactive)
5 | CN(C)CC#Cc1cccc(-c2nc(C(=O)NCc3ccc(Oc4ccccc4)cc3)cc3c2[C@@H](CCO)N(S(=O)C(C)(C)C)C3)c1 (stereo partly specified) | – | 31.3% (inactive)
6 | O=C(Cc1ccccn1)N1CCCCN2[C@@H](CO)[C@H](c3ccc(-c4ccc(F)cc4)cc3)[C@@H]2C1 | – | -8.79% (inactive)
7 | CC(C)N1C[C@H](CN2Cc3ccccc3C2)Oc2c(NC(=O)c3ccncc3)cccc2C1=O | – | 1.03% (inactive)
8 | CC(=O)N1CCCCN2[C@@H](CO)[C@H](c3ccc(-c4cccc(C(=O)N(C)C)c4)cc3)[C@@H]2C1 | – | 24.4% (inactive)
9 | CN(C)C(=O)c1cccc(-c2ccc([C@@H]3[C@@H](CO)N4CCCCN(C(=O)C5CCC5)C[C@@H]34)cc2)c1 | – | 0.445% (inactive)
10 | CN1CCCCN2[C@@H](CO)[C@H](c3ccc(Br)cc3)[C@@H]2C1 | – | -2.42% (inactive)
11 | C[C@@H](CO)N1CC[C@H](CNC(=O)OC(C)(C)C)Oc2c(cccc2[N+](=O)[O-])C1=O | – | 16.7% (inactive)
12 | CN(C)CC#Cc1cccc(-c2nc(C(=O)N3CCN(C)CC3)cc3c2[C@@H](CCO)N(S(=O)C(C)(C)C)C3)c1 (stereo partly specified) | – | 18.9% (inactive)
13 | C[C@H]1CN([C@@H](C)CO)C(=O)c2cccc(NC(=O)c3ccncc3)c2O[C@@H]1CN(C)Cc1ccccc1Cl | – | -7.97% (inactive)
14 | CC(C)N1CC2(CN(CC3CCCCC3)C2)Oc2c(NC(=O)c3ccncc3)cccc2C1=O | – | 9.84% (inactive)
15 | CC(C)N1C[C@H](C)[C@@H](CN(C)Cc2ccc(Cl)cc2)Oc2c(C(=O)Nc3ccncc3)cccc2C1=O | – | -7.6% (inactive)
16 | O=C(CN1CCOCC1)N1CCCCN2[C@@H](CO)[C@H](c3ccc(Br)cc3)[C@@H]2C1 | – | 2.42% (inactive)
17 | CN(C)CC(=O)N1CCCCN2[C@@H](CO)[C@H](c3ccc(-c4cccnc4)cc3)[C@@H]2C1 | – | 0.846% (inactive)
18 | CC(C)N1C[C@@H](CN(C)Cc2ccc(Cl)cc2)Oc2c(C(=O)Nc3ccnnc3)cccc2C1=O | – | -4.49% (inactive)
19 | CC(C)N1C[C@@H](CN(C)Cc2ccc(Cl)cc2)Oc2c(NC(=O)c3ncn[nH]3)cccc2C1=O | – | 0.096% (inactive)
20 | Cc1cccc(CN(C)C[C@H]2Oc3c(NC(=O)c4ccncc4)cccc3C(=O)N([C@@H](C)CO)C[C@@H]2C)c1 | – | -19.1% (inactive)
21 | COCCNC(=O)c1cc2c(c(-c3cccc(C#CCN(C)C)c3)n1)[C@H](CCO)N(S(=O)C(C)(C)C)C2 (stereo partly specified) | – | 20.8% (inactive)
22 | CC(C)(C)S(=O)N1Cc2cc(C(=O)NCc3ccc4c(c3)OCO4)nc(-c3cccc(-c4cccc(F)c4)c3)c2[C@H]1CCO (stereo partly specified) | – | 12.7% (inactive)
23 | C[C@@H]1CN([C@H](C)CO)C(=O)c2cccc(NC(=O)c3ccncc3)c2O[C@H]1CN(C)Cc1ccc2c(c1)OCO2 | – | -14.9% (inactive)
24 | CC(C)N1C[C@@H](C)[C@H](CN(C)C(=O)OC(C)(C)C)Oc2c(C(=O)O)cccc2C1=O | – | 14.1% (inactive)
25 | OC[C@H]1[C@H](c2ccc(Br)cc2)[C@@H]2CN(Cc3ccccn3)CCCCN12 | – | 5.37% (inactive)
26 | CC(C)(C)[S@](=O)N1Cc2cc(C(=O)NCc3ccc4c(c3)OCO4)nc(-c3cccc(-c4ccncc4)c3)c2[C@@H]1CCO | – | -21.4% (inactive)
